# Laboratory results published in US12653800B2, “Small molecule inhibitors of TLR2 signaling” (University of Maryland, Baltimore, priority 2015, dated 2026).
# Experiments:
# [1] = target: TLR2/6 (Homo sapiens, UniProt O60603); test: P2C-induced IL-8 mRNA (qRT-PCR) in HEK-TLR2 stable transfectants; assay type: cell-based; parameters: expressed in transfected cells; conditions: 100 μM compound, 1 hr pretreatment, P2C 5 ng/mL 1 hr, HEK-TLR2 cells; read-out: decrease of P2C-induced IL-8 mRNA
# [2] = target: TLR2/1 (Mus musculus, UniProt Q9QUN7); test: Cytokine mRNA/protein in murine peritoneal macrophages stimulated with TLR2/1 agonists (P3C, LTA SA); assay type: cell-based; conditions: murine macrophages, 25 μM or 50 μM, P3C 50 ng/mL 1 hr
# Sequence of TLR2/1 (Q9QUN7 25-784): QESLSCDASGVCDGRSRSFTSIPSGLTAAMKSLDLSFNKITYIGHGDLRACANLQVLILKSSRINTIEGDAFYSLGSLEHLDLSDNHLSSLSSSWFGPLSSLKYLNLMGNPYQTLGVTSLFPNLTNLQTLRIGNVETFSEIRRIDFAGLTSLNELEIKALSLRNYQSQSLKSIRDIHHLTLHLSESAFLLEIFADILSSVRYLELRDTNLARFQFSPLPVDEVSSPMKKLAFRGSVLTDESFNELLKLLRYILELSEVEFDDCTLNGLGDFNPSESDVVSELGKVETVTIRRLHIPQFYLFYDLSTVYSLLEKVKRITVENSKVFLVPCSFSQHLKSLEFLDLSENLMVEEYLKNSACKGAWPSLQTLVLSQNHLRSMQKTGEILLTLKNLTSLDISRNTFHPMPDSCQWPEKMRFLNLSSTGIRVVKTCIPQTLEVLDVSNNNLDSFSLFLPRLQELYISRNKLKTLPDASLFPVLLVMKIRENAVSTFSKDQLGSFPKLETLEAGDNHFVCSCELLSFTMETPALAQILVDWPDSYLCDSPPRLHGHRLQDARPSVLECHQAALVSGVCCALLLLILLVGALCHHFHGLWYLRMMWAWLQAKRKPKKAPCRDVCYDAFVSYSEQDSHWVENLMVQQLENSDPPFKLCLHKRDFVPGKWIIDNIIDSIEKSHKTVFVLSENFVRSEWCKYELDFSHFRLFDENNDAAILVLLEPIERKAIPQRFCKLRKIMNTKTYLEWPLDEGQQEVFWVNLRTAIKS
# [3] = in vivo; stated for o-vanillin, reported previously for its isomer vanillin (Beaudry 2010); cited from earlier work
# Sequence of TLR2/6 (O60603 21-784): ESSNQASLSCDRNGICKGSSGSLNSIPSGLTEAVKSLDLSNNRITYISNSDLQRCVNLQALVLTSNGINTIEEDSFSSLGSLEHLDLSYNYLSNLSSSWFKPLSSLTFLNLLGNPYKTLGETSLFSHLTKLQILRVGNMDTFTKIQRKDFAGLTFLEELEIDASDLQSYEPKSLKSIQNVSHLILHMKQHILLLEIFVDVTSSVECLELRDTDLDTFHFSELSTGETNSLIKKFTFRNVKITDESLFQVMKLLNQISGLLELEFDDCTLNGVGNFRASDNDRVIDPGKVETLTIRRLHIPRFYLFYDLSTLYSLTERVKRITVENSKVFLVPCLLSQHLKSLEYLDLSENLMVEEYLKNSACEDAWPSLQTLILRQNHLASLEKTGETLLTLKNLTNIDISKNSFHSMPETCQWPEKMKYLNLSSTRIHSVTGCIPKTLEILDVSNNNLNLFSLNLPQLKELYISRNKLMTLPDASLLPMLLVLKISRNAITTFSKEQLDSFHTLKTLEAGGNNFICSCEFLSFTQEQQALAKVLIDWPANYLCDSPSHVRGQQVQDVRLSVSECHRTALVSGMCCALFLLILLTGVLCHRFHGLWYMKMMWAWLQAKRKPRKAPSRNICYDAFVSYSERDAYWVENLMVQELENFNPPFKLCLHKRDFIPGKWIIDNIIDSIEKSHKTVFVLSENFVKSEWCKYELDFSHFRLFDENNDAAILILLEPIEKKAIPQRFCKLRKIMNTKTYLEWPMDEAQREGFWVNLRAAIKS
inhibition at 100 µM [1],Compound,other results
≥ 50%,CN(CC(=O)Nc1ccc2c(c1)OCO2)S(=O)(=O)c1cccs1 [Compound C24],–
≥ 50%,COc1cccc(-c2nc(CSCC(=O)NCCN3CCOCC3)c(C)o2)c1 [Compound C25],–
≥ 50%,COc1ccc(-c2nc(CSCC(=O)NCc3cccnc3)c(C)o2)cc1OC [Compound C26],–
–,"Cc1c(N)cccc1C(=O)O [Compound C29R, 3-amino-2-methylbenzoic acid, reference compound]","TLR2/1-induced TNF-α gene expression [2]: but not C29R, dose-dependently inhibited"
≥ 50%,O=C(CCC1N=C2c3ccccc3NC(=S)N2C1=O)NCc1ccco1 (centres unmarked) [Compound C30],–
≥ 50%,CCN(CCCNc1nc(=S)[nH]c2ccccc12)c1ccccc1 [Compound C32],–
≥ 50%,Cc1ccc(S(=O)(=O)NCCC(=O)NCCc2ccccc2)cc1 [Compound C33],–
–,"COc1cc(C=O)ccc1O [vanillin, reference compound]",bioavailability [3]: poor bioavailability
